Reference: ChEMBL document CHEMBL1139950, “Derivatives of oxoisoaporphine alkaloids: a novel class of selective acetylcholinesterase inhibitors” (Bioorg Med Chem Lett, 2007)

Key:
[1] = molecular target: Acetylcholinesterase (Electrophorus electricus, UniProt O42275); assay: Inhibition of electric eel AChE
[2] = molecular target: Butyrylcholinesterase (Equus caballus, UniProt Q9N1N9); assay: Inhibition of equine serum BuChE
[3] = Selectivity for electric eel AChE over equine serum BuChE

Acetylcholinesterase, sequence (O42275 whole entry): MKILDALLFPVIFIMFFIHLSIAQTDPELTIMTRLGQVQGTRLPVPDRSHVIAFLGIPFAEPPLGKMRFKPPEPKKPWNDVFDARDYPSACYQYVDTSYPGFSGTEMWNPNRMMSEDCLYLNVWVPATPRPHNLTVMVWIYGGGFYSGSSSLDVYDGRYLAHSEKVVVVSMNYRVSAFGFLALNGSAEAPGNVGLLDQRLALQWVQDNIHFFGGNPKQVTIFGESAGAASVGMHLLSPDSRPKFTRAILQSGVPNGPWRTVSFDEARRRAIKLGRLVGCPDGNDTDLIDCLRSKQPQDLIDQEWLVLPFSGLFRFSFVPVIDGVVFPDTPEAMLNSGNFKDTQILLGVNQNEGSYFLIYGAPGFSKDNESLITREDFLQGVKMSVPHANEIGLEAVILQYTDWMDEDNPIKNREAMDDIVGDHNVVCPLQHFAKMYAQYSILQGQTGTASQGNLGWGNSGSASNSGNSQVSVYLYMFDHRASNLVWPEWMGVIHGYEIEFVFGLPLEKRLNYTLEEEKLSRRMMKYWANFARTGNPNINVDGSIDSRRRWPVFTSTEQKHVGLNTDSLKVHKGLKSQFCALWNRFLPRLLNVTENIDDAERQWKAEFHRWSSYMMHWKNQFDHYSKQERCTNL
Butyrylcholinesterase, sequence (Q9N1N9 whole entry): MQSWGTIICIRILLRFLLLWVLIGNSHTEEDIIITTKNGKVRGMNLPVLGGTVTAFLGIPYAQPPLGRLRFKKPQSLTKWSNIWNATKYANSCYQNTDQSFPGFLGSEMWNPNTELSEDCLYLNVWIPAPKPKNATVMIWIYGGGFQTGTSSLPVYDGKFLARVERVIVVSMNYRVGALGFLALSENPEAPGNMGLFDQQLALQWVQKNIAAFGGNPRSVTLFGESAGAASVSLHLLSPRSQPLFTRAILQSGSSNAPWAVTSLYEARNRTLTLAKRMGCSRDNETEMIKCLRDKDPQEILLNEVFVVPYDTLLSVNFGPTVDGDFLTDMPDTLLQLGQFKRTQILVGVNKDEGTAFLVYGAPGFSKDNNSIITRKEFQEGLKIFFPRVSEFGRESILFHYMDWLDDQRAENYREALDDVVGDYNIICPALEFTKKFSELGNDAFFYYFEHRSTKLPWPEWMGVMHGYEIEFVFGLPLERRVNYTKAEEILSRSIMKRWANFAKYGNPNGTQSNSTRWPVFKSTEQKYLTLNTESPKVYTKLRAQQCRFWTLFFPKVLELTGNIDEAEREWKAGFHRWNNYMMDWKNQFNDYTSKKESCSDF

SMILES | IC50 [1] | IC50 [2] | Ratio IC50 [3]
C[N+]1(CCCC(=O)Nc2ccc3c(c2)C(=O)c2cccc4ccnc-3c24)CCCC1 | 2.51 nM | 3230 nM | 1290
C[N+]1(CC(=O)Nc2ccc3c(c2)C(=O)c2cccc4ccnc-3c24)CCCC1 | 1.08 nM | 1690 nM | 1560
O=C(CCN1CCCC1)Nc1ccc2c(c1)C(=O)c1cccc3ccnc-2c13 | 2.47 nM | 2410 nM | 980
O=C(CCNCCO)Nc1ccc2c(c1)C(=O)c1cccc3ccnc-2c13 | 55.1 nM | 5340 nM | 97
C[N+](C)(C)CC(=O)Nc1ccc2c(c1)C(=O)c1cccc3ccnc-2c13 | 14.9 nM | 1310 nM | 88
C[N+](C)(C)CCC(=O)Nc1ccc2c(c1)C(=O)c1cccc3ccnc-2c13 | 4.81 nM | 2820 nM | 590
C[N+](C)(C)CCCC(=O)Nc1ccc2c(c1)C(=O)c1cccc3ccnc-2c13 | 4.79 nM | 2370 nM | 490
CC[N+](C)(CC)CCCC(=O)Nc1ccc2c(c1)C(=O)c1cccc3ccnc-2c13 | 2.62 nM | 5190 nM | 1980
CCN(CC)CCC(=O)Nc1ccc2c(c1)C(=O)c1cccc3ccnc-2c13 | 11.6 nM | 6060 nM | 523
CN(C)CCNCCC(=O)Nc1ccc2c(c1)C(=O)c1cccc3ccnc-2c13 | 120 nM | 5370 nM | 45
C[N+]1(CCC(=O)Nc2ccc3c(c2)C(=O)c2cccc4ccnc-3c24)CCCC1 | 1.06 nM | 1960 nM | 1850
O=C(CN1CCCC1)Nc1ccc2c(c1)C(=O)c1cccc3ccnc-2c13 | 6.18 nM | 3490 nM | 560
Nc1ccc2c(c1)C(=O)c1cccc3ccnc-2c13 | 26900 nM | 100000 nM | –
O=C(CCCN1CCCC1)Nc1ccc2c(c1)C(=O)c1cccc3ccnc-2c13 | 12.1 nM | 3610 nM | 300
CN(C)CCCC(=O)Nc1ccc2c(c1)C(=O)c1cccc3ccnc-2c13 | 30.5 nM | 4400 nM | 144
CN(C)CCC(=O)Nc1ccc2c(c1)C(=O)c1cccc3ccnc-2c13 | 33.9 nM | 1950 nM | 58
CN(C)CC(=O)Nc1ccc2c(c1)C(=O)c1cccc3ccnc-2c13 | 96.5 nM | 4370 nM | 45
